Where “and” joins values, the source holds several entries; their conditions need not be identical. Equal values may be shown once.
What was measured:
[1] = tested on: adjuvant arthritis induced in rats; assay: adjuvant arthritis analgesic bioassay (tail pinch / foot bend squeak response); assay type: in vivo, Sprague-Dawley rats
From the text: Since analgesic tests using intact animals are not sensitive enough to detect the analgesic activity of nonsteroidal anti-inflammatory compounds, the analgesic bioassay employed utilized inflammatory sensitization procedures, specifically adjuvant arthritis. Adjuvant arthritis induced in rats, the animals used in the bioassay, resembles rheumatoid arthritis in man with respect to the manifestation of inflammation and hyperalgesia. When the affected joints of rats with adjuvant arthritis are subjected to a gentle manipulation, preferably by extending the joint, the rats respond by squeaking, which is a definite and reproducible sign of algesia. The ability of the tested compounds to suppress this squeaking response was an accurate measure of the analgesic activity of the tested compounds.
In accordance with the adjuvant arthritis bioassay used to evaluate the analgesic activity of the combinations of compounds of the present invention, young adult Sprague-Dawley rats of either sex are rendered hyperalgesic by injection of dessicated Mycobacterium- butyricum suspended in light mineral oil (Freund's adjuvant). The mycobacteria are ground in a mortar, suspended in the oil, and sterilized in an autoclave. Each animal receives 0.5 mg of the bacteria in 0.1 ml of oil, injected subcutaneously through a 21-gauge needle into the distal third of the tail.
The animals can subsequently be used in two ways for testing the analgesic action of drugs. The day after the injection of adjuvant, the tail is found to be sensitive to touch. Approximately 16 hours after the injection, the experimenter tests the animals for the presence of hyperalgesia. This is done by holding the animal in one hand. With the thumb and forefinger of the other hand, the observer applies gentle pressure to the tail about 2.5 cm proximal to the point where the needle has been inserted. This gentle pressure is repeated at 5-sec intervals. If the rat endures five such gentle presses without emitting more than one "squeak", analgesia is considered to be present and a score of + is assigned. Two or more squeaks earns a rating of 0, or no analgesia. Before being assigned to an experiment, animals are screened and only those with the 0 rating are used.
The hyperalgesic animals are assigned randomly to drug treatments and one of the treatments is always the vehicle without the drug (placebo group). […] […] This entire procedure may be referred to as "tail pinch" .technique. Alternatively, an apparatus for applying pressure to the tail may be employed and the "squeak threshold" determined before and after drug.
The adjuvant-injected animals, if left undisturbed, develop severe arthritis which becomes especially manifest in about two weeks. […] This "foot bend" technique yields drug responses essentially identical with those obtained by the "tail pinch" procedure.
For a further description of this bioassay and its significance, reference is made to Kuzuma and Kawai, "Evaluation of Analgesic Agents in Rats with Adjuvant Arthritis", Chem. Pharm. Bull., 23 (6) 1184-1191 (1975).

in vivo = assay type: in vivo, mice; details: mouse, in vivo, po
Protocol: (§1) Measurements of the relative safety of the components and of the combination were carried out using acute oral toxicity studies in female mice. Randomly selected female albino mice (Carworth CF-1) weighing from 18 to 24 grams, and 6 to 7 weeks old, were used. The LD50 value for each drug was estimated from acute oral dose-response curves previously established. The following dose regimen was utilized:
(§2) The preparations were administered by gastric intubation using a metal catheter attached to a springe. The various doses were administered randomly with 20 mice per group. Food was withheld one to two hours before and three hours following drug treatment. Water was available at all times. […] Body weights were taken pretest and on days 7 and 14.

[2] = tested on: female albino mice (Carworth CF-1); assay: in vivo; assay type: in vivo; details: Group V: Acetaminophen 1500 mg./kg. (100 %LD50) alone; oral; 20 tested; 14 days
Protocol: as §1, §2

[3] = tested on: adjuvant arthritis induced in rats; details: compounds known to be clinically active; cited from earlier work

CC(=O)Nc1ccc(O)cc1 [APAP, acetaminophen]
Number of Rats with Analgesia ([1]; 1/2 h after administration, dose 200 mg./kg., 8 rats per dose): 2 | Percent of Rats with Analgesia APAP Alone ([1]; 1 Hrs. after drug, APAP 25 mg./kg., 10 rats per dose): 10% | Percent of Rats with Analgesia APAP Alone ([1]; 1 Hrs. after drug, APAP 200 mg./kg., 8 rats per dose): 25% and 37.5% | Percent of Rats with Analgesia APAP Alone ([1]; 2 Hrs. after drug, APAP 50 mg./kg., 10 rats per dose): 0% | Percent of Rats with Analgesia APAP Alone ([1]; 3 Hrs. after drug, APAP 100 mg./kg., 8 rats per dose): 0% | Percent of Rats with Analgesia APAP Alone ([1]; 3 Hrs. after drug, APAP 100 mg./kg., 10 rats per dose): 0% | Percent of Rats with Analgesia APAP Alone ([1]; 4 Hrs. after drug, APAP 25 mg./kg., 10 rats per dose): 0% | Percent of Rats with Analgesia APAP Alone ([1]; 4 Hrs. after drug, APAP 50 mg./kg., 10 rats per dose): 0% | Percent of Rats with Analgesia APAP Alone ([1]; 4 Hrs. after drug, APAP 100 mg./kg., 8 rats per dose): 0% | Percent of Rats with Analgesia APAP Alone ([1]; 4 Hrs. after drug, APAP 100 mg./kg., 10 rats per dose): 0% | Percent of Rats with Analgesia APAP Alone ([1]; 5 Hrs. after drug, APAP 100 mg./kg., 8 rats per dose): 0% | Percent of Rats with Analgesia APAP Alone ([1]; 5 Hrs. after drug, APAP 200 mg./kg., 8 rats per dose): 25% | Number of Rats with Analgesia ([1]; 1 h after administration, dose 25 mg./kg., 10 rats per dose): 1 | Number of Rats with Analgesia ([1]; 1 h after administration, dose 50 mg./kg., 10 rats per dose): 1 | Number of Rats with Analgesia ([1]; 1 h after administration, dose 100 mg./kg., 10 rats per dose): 3 | Number of Rats with Analgesia ([1]; 1 h after administration, dose 200 mg./kg., 8 rats per dose): 2 and 3 | Number of Rats with Analgesia ([1]; 1 h after administration, dose 400 mg./kg., 8 rats per dose): 6 and 4 | Number of Rats with Analgesia ([1]; 2 h after administration, dose 25 mg./kg., 10 rats per dose): 0 | Number of Rats with Analgesia ([1]; 2 h after administration, dose 50 mg./kg., 10 rats per dose): 0 | Number of Rats with Analgesia ([1]; 2 h after administration, dose 100 mg./kg., 8 rats per dose): 1 | Number of Rats with Analgesia ([1]; 2 h after administration, dose 100 mg./kg., 10 rats per dose): 2 | Number of Rats with Analgesia ([1]; 2 h after administration, dose 200 mg./kg., 8 rats per dose): 4 and 3 | Number of Rats with Analgesia ([1]; 2 h after administration, dose 400 mg./kg., 8 rats per dose): 7 | Number of Rats with Analgesia ([1]; 3 h after administration, dose 25 mg./kg., 10 rats per dose): 0 | Number of Rats with Analgesia ([1]; 3 h after administration, dose 50 mg./kg., 10 rats per dose): 0 | Number of Rats with Analgesia ([1]; 3 h after administration, dose 100 mg./kg., 10 rats per dose): 0 | Number of Rats with Analgesia ([1]; 3 h after administration, dose 200 mg./kg., 8 rats per dose): 4 | Number of Rats with Analgesia ([1]; 3 h after administration, dose 400 mg./kg., 8 rats per dose): 6 | Number of Rats with Analgesia ([1]; 4 h after administration, dose 25 mg./kg., 10 rats per dose): 0 | Number of Rats with Analgesia ([1]; 4 h after administration, dose 50 mg./kg., 10 rats per dose): 0 | Number of Rats with Analgesia ([1]; 4 h after administration, dose 100 mg./kg., 8 rats per dose): 0 | Number of Rats with Analgesia ([1]; 4 h after administration, dose 100 mg./kg., 10 rats per dose): 0 | Number of Rats with Analgesia ([1]; 4 h after administration, dose 200 mg./kg., 8 rats per dose): 4 | Number of Rats with Analgesia ([1]; 4 h after administration, dose 400 mg./kg., 8 rats per dose): 5 and 4 | Number of Rats with Analgesia ([1]; 5 h after administration, dose 25 mg./kg., 10 rats per dose): 0 | Number of Rats with Analgesia ([1]; 5 h after administration, dose 50 mg./kg., 10 rats per dose): 0 | Number of Rats with Analgesia ([1]; 5 h after administration, dose 100 mg./kg., 8 rats per dose): 0 | Number of Rats with Analgesia ([1]; 5 h after administration, dose 100 mg./kg., 10 rats per dose): 0 | Number of Rats with Analgesia ([1]; 5 h after administration, dose 200 mg./kg., 8 rats per dose): 2 and 1 | Number of Rats with Analgesia ([1]; 5 h after administration, dose 400 mg./kg., 8 rats per dose): 2 and 3 | Number of Rats with Analgesia ([1]; 6 h after administration, dose 25 mg./kg., 10 rats per dose): 0 | Number of Rats with Analgesia ([1]; 6 h after administration, dose 50 mg./kg., 10 rats per dose): 0 | Number of Rats with Analgesia ([1]; 6 h after administration, dose 100 mg./kg., 8 rats per dose): 0 | Number of Rats with Analgesia ([1]; 6 h after administration, dose 100 mg./kg., 10 rats per dose): 0 | Number of Rats with Analgesia ([1]; 6 h after administration, dose 400 mg./kg., 8 rats per dose): 1 | Total Positives ([1]; sum over 1/2, 1 and 2 h, dose 200 mg./kg., 8 rats per dose): 7 | Total Positives ([1]; sum over 1 and 2 h, dose 100 mg./kg., 10 rats per dose): 5 | LD50 (in vivo): 1500 mg/kg | No. Dead [2]: 16

COc1ccc2c(c1)c(CC(=O)O)c(C)n2C(=O)c1ccc(Cl)cc1 [indomethacin]
results in the adjuvant arthritis analgesic bioassay [3]: positive, dose-dependent, reproducible results

CC(=O)Oc1ccccc1C(=O)O [aspirin]
results in the adjuvant arthritis analgesic bioassay [3]: positive, dose-dependent, reproducible results

CC(C)Cc1ccc(CC(=O)O)cc1 [ibufenac]
results in the adjuvant arthritis analgesic bioassay [3]: positive, dose-dependent, reproducible results

Reference: patent publication EP0017102A1, “Composition containing a phenyl benzoic acid compound and acetaminophen combination for the treatment of pain and inflammation and process for preparing the same” (Merck & Co., Inc., priority 1979, dated 1980)
